Experimental data reported in PubChem BioAssay AID330 (DTP/NCI, 2004).
“And” between values parts separate entries of the source, which are not always exact repeats. Equal entries are not always repeated. Toxic doses and inconclusive results are not listed. Rule for the calls: active = survival T/C of 150% or more; inactive = T/C below 125% in these data.

System: P388 leukemia ip, CD2F1 mice, survival T/C
Test: NCI In Vivo Anticancer Drug Screen. Data for tumor model P388 Leukemia (intraperitoneal) in CD2F1 (CDF1) mice
Settings: endpoint: median survival time, higher = longer survival
How it was run: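 Mice carrying the transplanted tumor received test compound or vehicle. Survival was recorded in each group, and the value is the treated-group measurement divided by that of the vehicle-treated control group.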

[1] = dose: 50.0 mg/kg/injection, schedule: Q01DX009 (ip), vehicle: saline with Tween-80
[2] = dose: 100.0 mg/kg/injection, schedule: Q01DX009 (ip), vehicle: saline with Tween-80
[3] = dose: 200.0 mg/kg/injection, schedule: Q01DX009 (ip), vehicle: saline with Tween-80
[4] = dose: 60.0 mg/kg/injection, schedule: Q01DX005 (ip), vehicle: saline with Tween-80
[5] = dose: 120.0 mg/kg/injection, schedule: Q01DX005 (ip), vehicle: saline with Tween-80
[6] = dose: 240.0 mg/kg/injection, schedule: Q01DX005 (ip), vehicle: saline with Tween-80
[7] = dose: 50.0 mg/kg/injection, schedule: Q01DX005 (ip), vehicle: saline

Measured: T/C

CC12CCC3C4CCC(=O)C(O)=C4CCC3C1CCC2OC(=O)CCC1CCCC1 (centres undefined)
inactive: dose: 50.0 mg/kg/injection, schedule: Q04DX003 (sc), vehicle: Klucel (hydroxypropylcellulose) (HPC) 99 % of control | dose: 100.0 mg/kg/injection, schedule: Q04DX003 (sc), vehicle: Klucel (hydroxypropylcellulose) (HPC) 118 % of control | dose: 200.0 mg/kg/injection, schedule: Q04DX003 (sc), vehicle: Klucel (hydroxypropylcellulose) (HPC) 101 % of control

OCCSCc1ccc(F)cc1
inactive: dose: 50.0 mg/kg/injection, schedule: Q01DX005 (ip), vehicle: Klucel (hydroxypropylcellulose) (HPC) 101 % of control | dose: 100.0 mg/kg/injection, schedule: Q01DX005 (ip), vehicle: Klucel (hydroxypropylcellulose) (HPC) 97 % of control | dose: 200.0 mg/kg/injection, schedule: Q01DX005 (ip), vehicle: Klucel (hydroxypropylcellulose) (HPC) 104 % of control

C=C(C)c1c2c(SC)ccc(SC)c2cc2c(SC)ccc(SC)c12
inactive: dose: 100.0 mg/kg/injection, schedule: Q01DX001 (ip), vehicle: saline with Tween-80 96 % of control | dose: 200.0 mg/kg/injection, schedule: Q01DX001 (ip), vehicle: saline with Tween-80 98 % of control | dose: 400.0 mg/kg/injection, schedule: Q01DX001 (ip), vehicle: saline with Tween-80 95 % of control

COc1cc(OC)c(C(=O)O)cc1C(C)=O
inactive: [1] 105 % of control | [2] 115 % of control | [3] 96 % of control

CCOC1=Nc2ccccc2C1(C)CCO (centres undefined)
inactive: [4] 96 % of control | [5] 101 % of control | [6] 96 % of control

Nc1ccc(-c2ccc(N)c(Cl)c2)cc1Cl
inactive: [1] 104 % of control | [2] 114 % of control | [3] 112 % of control

C1CC2CCC1CNC2
inactive: dose: 25.0 mg/kg/injection, schedule: Q04DX003 (ip), vehicle: saline 104 % of control | dose: 50.0 mg/kg/injection, schedule: Q04DX003 (ip), vehicle: saline 104 % of control | dose: 100.0 mg/kg/injection, schedule: Q04DX003 (ip), vehicle: saline 95 % of control

CC(/C=C/c1ccc2c(c1)OCO2)=N\NC(N)=S
inactive: dose: 3.13 mg/kg/injection, schedule: Q01DX005 (ip), vehicle: saline with Tween-80 104 % of control | dose: 6.25 mg/kg/injection, schedule: Q01DX005 (ip), vehicle: saline with Tween-80 112 % of control

CCCCCCCCCCCCCCCCCCOCC(COP(=O)([O-])OCC[N+](C)(C)C)OC (centres undefined)
inactive: dose: 3.12 mg/kg/injection, schedule: Q01DX009 (ip), vehicle: saline 103 % of control | dose: 6.25 mg/kg/injection, schedule: Q01DX009 (ip), vehicle: saline 109 % of control | dose: 12.5 mg/kg/injection, schedule: Q01DX005 (ip), vehicle: saline with Tween-80 109 % of control | dose: 12.5 mg/kg/injection, schedule: Q01DX009 (ip), vehicle: saline 107 % of control and 117 % of control | dose: 25.0 mg/kg/injection, schedule: Q01DX009 (ip), vehicle: saline 122 % of control and 124 % of control | dose: 50.0 mg/kg/injection, schedule: Q01DX009 (ip), vehicle: saline 88 % of control

CS(=O)(=O)OCCN(CCOS(C)(=O)=O)c1ccc([N+](=O)[O-])cc1[N+](=O)[O-]
inactive: dose: 100.0 mg/kg/injection, schedule: Q01DX001 (ip), vehicle: Klucel (hydroxypropylcellulose) (HPC) 88 % of control | dose: 200.0 mg/kg/injection, schedule: Q01DX001 (ip), vehicle: Klucel (hydroxypropylcellulose) (HPC) 100 % of control | dose: 400.0 mg/kg/injection, schedule: Q01DX001 (ip), vehicle: Klucel (hydroxypropylcellulose) (HPC) 103 % of control

COC(=O)CC1C(C)(C)C(=O)C2CC3=C4CC(=O)OC(c5ccoc5)C4(C)CCC3C1(C)C2=O (centres undefined)
inactive: [4] 97 % of control | [5] 92 % of control | [6] 89 % of control

C=C[CH2][Sn]([CH3])([CH3])[CH2]C=C
inactive: [7] 96 % of control | dose: 100.0 mg/kg/injection, schedule: Q01DX005 (ip), vehicle: saline 107 % of control

CCN(CC)CCOc1ccc(NC2=C(Cl)C(=O)C(Nc3ccc(OCCN(CC)CC)cc3)=C(Cl)C2=O)cc1
inactive: dose: 3.13 mg/kg/injection, schedule: Q01DX009 (ip), vehicle: saline + alcohol 103 % of control | dose: 6.25 mg/kg/injection, schedule: Q01DX009 (ip), vehicle: saline + alcohol 110 % of control | dose: 12.5 mg/kg/injection, schedule: Q01DX009 (ip), vehicle: saline + alcohol 112 % of control | dose: 12.5 mg/kg/injection, schedule: Q01DX009 (ip), vehicle: saline with Tween-80 105 % of control | dose: 25.0 mg/kg/injection, schedule: Q01DX009 (ip), vehicle: saline with Tween-80 106 % of control

CCC1CC(O)c2c(O)c3c(c(O)c2C1O)C(=O)c1cccc(O)c1C3=O (centres undefined) (tested in a mixture with another compound)
inactive: dose: 0.25 mg/kg/injection, schedule: Q04DX003 (ip), vehicle: other 102 % of control | dose: 30.0 micrograms/kg/injection, schedule: Q01DX009 (ip), vehicle: other 107 % of control | dose: 60.0 micrograms/kg/injection, schedule: Q01DX009 (ip), vehicle: other 106 % of control | dose: 130.0 micrograms/kg/injection, schedule: Q01DX009 (ip), vehicle: other 98 % of control

COC(=O)NC1(NC(=O)OC)NC(=O)c2cc(OC)c(OC)c(OC)c2N1
inactive: dose: 25.0 mg/kg/injection, schedule: Q01DX005 (ip), vehicle: saline + alcohol 102 % of control | dose: 50.0 mg/kg/injection, schedule: Q01DX005 (ip), vehicle: saline + alcohol 98 % of control | dose: 100.0 mg/kg/injection, schedule: Q01DX005 (ip), vehicle: saline + alcohol 100 % of control | dose: 200.0 mg/kg/injection, schedule: Q01DX005 (ip), vehicle: saline + alcohol 93 % of control

COc1ccc(N=C(C)C2C(=O)c3ccccc3C2=O)cc1
inactive: dose: 50.0 mg/kg/injection, schedule: Q01DX005 (ip), vehicle: DMSO 100 % of control | dose: 50.0 mg/kg/injection, schedule: Q01DX005 (ip), vehicle: saline with Tween-80 113 % of control | dose: 100.0 mg/kg/injection, schedule: Q01DX005 (ip), vehicle: DMSO 102 % of control | dose: 100.0 mg/kg/injection, schedule: Q01DX005 (ip), vehicle: saline with Tween-80 104 % of control | dose: 200.0 mg/kg/injection, schedule: Q01DX005 (ip), vehicle: DMSO 102 % of control | dose: 200.0 mg/kg/injection, schedule: Q01DX005 (ip), vehicle: saline with Tween-80 95 % of control | dose: 400.0 mg/kg/injection, schedule: Q01DX005 (ip), vehicle: DMSO 117 % of control | dose: 800.0 mg/kg/injection, schedule: Q01DX005 (ip), vehicle: DMSO 99 % of control

O=C(O)/C=C/C(=O)Nc1ccc(N=Nc2ccccc2)cc1
inactive: dose: 50.0 mg/kg/injection, schedule: Q04DX003 (ip), vehicle: saline with Tween-80 104 % of control | dose: 100.0 mg/kg/injection, schedule: Q04DX003 (ip), vehicle: saline with Tween-80 100 % of control | dose: 200.0 mg/kg/injection, schedule: Q04DX003 (ip), vehicle: saline with Tween-80 90 % of control

COC1/C=C/OC2(C)Oc3c(C)c(O)c4c(c3C2=O)C(=O)C=C(NC(=O)/C(C)=C\C=C\C(C)C(OC=O)C(C)C(O)C(C)C(OC(C)=O)C1C)C4=O (centres undefined)
inactive: [1] 100 % of control | [2] 92 % of control | [3] 91 % of control

N#CC(C#N)=CC(C#N)C#N
inactive: dose: 12.5 mg/kg/injection, schedule: Q01DX005 (ip), vehicle: saline 104 % of control | dose: 25.0 mg/kg/injection, schedule: Q01DX005 (ip), vehicle: saline 101 % of control | [7] 107 % of control and 92 % of control

CC1(C)[C@H]2Cc3c(ccc4c3C(=O)OC4=O)[C@@H]1C2
inactive: dose: 50.0 mg/kg/injection, schedule: Q01DX005 (ip), vehicle: Klucel + Tween-80 107 % of control | dose: 100.0 mg/kg/injection, schedule: Q01DX005 (ip), vehicle: Klucel + Tween-80 112 % of control
